Source: the supplement of paper PMC10307832

Experiments:
Experiment in all cases: relative viability (nuclei count vs DMSO), 5 days (fraction); higher = more cells survive
Bortezomib + Pemetrexed = compound: CC(C)C[C@H](NC(=O)[C@H](Cc1ccccc1)NC(=O)c1cnccn1)B(O)O [Bortezomib] + Nc1nc2[nH]cc(CCc3ccc(C(=O)N[C@@H](CCC(=O)O)C(=O)O)cc3)c2c(=O)[nH]1 [Pemetrexed] (partner 0.2 µM)
How it was run: (§1)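 Each reported value is a median over duplicate plates. It expresses relative viability: treated-well nuclei count divided by vehicle-well nuclei count. Lung cancer cell lines in 1536-well plates were dosed by pin tool a day after seeding, alone with one drug or with a fixed anchor-drug dose plus five library-drug doses (not always all listed) in √10 steps, and nuclei were counted after 5 days.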

[1] = compound: CC1=CC(=NN1)NC2=CC(=NC(=N2)/C=C/C3=CC=CC=C3)N4CCN(CC4)C + N=C(N)NC(=N)NCCc1ccccc1 [Phenformin] (partner 250 µM)
How it was run: as §1

Obatoclax + Crizotinib = compound: COC1=CC(c2cc3ccccc3[nH]2)=N/C1=C\c1[nH]c(C)cc1C [Obatoclax] + C[C@@H](Oc1cc(-c2cnn(C3CCNCC3)c2)cnc1N)c1c(Cl)ccc(F)c1Cl [Crizotinib] (partner 1 µM)
How it was run: as §1

Bortezomib + Olaparib = compound: CC(C)C[C@H](NC(=O)[C@H](Cc1ccccc1)NC(=O)c1cnccn1)B(O)O [Bortezomib] + O=C(c1cc(Cc2n[nH]c(=O)c3ccccc23)ccc1F)N1CCN(C(=O)C2CC2)CC1 [Olaparib] (partner 8 µM)
How it was run: as §1

Cell Line	relative viability (Bortezomib + Pemetrexed; first compound 0.0002 µM)	relative viability (Bortezomib + Pemetrexed; first compound 0.000632 µM)	relative viability (Bortezomib + Pemetrexed; first compound 0.002 µM)	relative viability (Bortezomib + Pemetrexed; first compound 0.006325 µM)	relative viability (Bortezomib + Pemetrexed; first compound 0.02 µM)	relative viability ([1]; first compound 0.08 µM)	relative viability ([1]; first compound 0.253 µM)	relative viability ([1]; first compound 0.8 µM)	relative viability ([1]; first compound 2.53 µM)	relative viability ([1]; first compound 8 µM)	relative viability (Obatoclax + Crizotinib; first compound 0.01 µM)	relative viability (Obatoclax + Crizotinib; first compound 0.03162 µM)	relative viability (Obatoclax + Crizotinib; first compound 0.1 µM)	relative viability (Obatoclax + Crizotinib; first compound 0.3162 µM)	relative viability (Obatoclax + Crizotinib; first compound 1 µM)	relative viability (Bortezomib + Olaparib; first compound 0.0002 µM)	relative viability (Bortezomib + Olaparib; first compound 0.000632 µM)	relative viability (Bortezomib + Olaparib; first compound 0.002 µM)	relative viability (Bortezomib + Olaparib; first compound 0.006325 µM)	relative viability (Bortezomib + Olaparib; first compound 0.02 µM)
NCI-H1755	0.404	0.495	0.472	0.286	0.239	0.658	0.616	0.551	0.333	0.221	0.846	0.833	0.813	0.925	0.867	0.845	0.896	0.828	0.241	0.207
NCI-H2170	0.271	0.256	0.286	0.263	0.136	0.44	0.388	0.382	0.32	0.204	1.13	1.13	1.11	1.2	1.09	0.583	0.576	0.584	0.11	0.102
NCI-H2126	0.648	0.695	0.707	0.61	0.536	0.518	0.557	0.525	0.365	0.227	1.06	0.987	0.952	1.02	0.965	0.851	0.903	0.9	0.794	0.184
EPLC-272H	0.354	0.308	0.157	0.085	0.0797	0.315	0.24	0.258	0.147	0.135	0.873	0.682	0.803	0.941	0.946	0.9	0.746	0.171	0.0682	0.0612
NCI-H1975	0.274	0.253	0.158	0.136	0.122	0.409	0.397	0.388	0.138	0.118	0.969	0.897	0.962	0.79	0.518	0.779	0.766	0.16	0.103	0.126
NCI-H3122	0.2	0.202	0.195	0.171	0.117	0.385	0.384	0.415	0.285	0.138	0.274	0.28	0.288	0.272	0.274	0.557	0.621	0.604	0.243	0.0898
COR-L 105	1.03	1.12	1.13	0.494	0.303	0.453	0.495	0.469	0.213	0.17	0.802	0.959	1	0.51	0.522	0.692	0.683	0.72	0.419	0.356
BEN	0.75	0.806	0.88	0.529	0.373	0.228	0.269	0.259	0.236	0.196	0.897	0.841	0.853	0.75	0.817	1.15	0.921	0.845	0.742	0.218
NCI-H1915	0.496	0.475	0.494	0.396	0.0489	0.368	0.393	0.337	0.234	0.165	0.898	0.835	0.864	0.877	0.901	0.251	0.257	0.244	0.056	0.0357
NCI-H1650	0.403	0.335	0.141	0.13	0.186	0.418	0.404	0.464	0.106	0.0916	0.892	1.01	1.05	0.699	0.297	0.607	0.757	0.165	0.12	0.157
NCI-H2009	1.05	1.05	1.02	0.553	0.0697	0.501	0.503	0.492	0.27	0.148	1.07	0.905	0.952	0.355	0.257	0.654	0.661	0.693	0.222	0.049
COR-L23	0.186	0.196	0.201	0.0763	0.0792	0.45	0.479	0.414	0.0934	0.0951	0.632	0.696	0.635	0.212	0.174	0.37	0.375	0.203	0.0613	0.0717
NCI-H460	0.0729	0.0627	0.0658	0.0625	0.0303	0.552	0.597	0.514	0.0212	0.0183	0.727	0.716	0.605	0.244	0.0446	0.355	0.422	0.392	0.0694	0.0397
LCLC-103H	0.46	0.483	0.47	0.559	0.317	0.344	0.34	0.333	0.326	0.232	0.944	1.03	1.02	1.03	1.03	0.747	0.778	0.671	0.355	0.202
HCC-827	0.265	0.254	0.219	0.234	0.247	0.39	0.402	0.435	0.401	0.216	0.86	0.847	0.957	0.876	0.772	0.725	0.611	0.357	0.14	0.138
NCI-H322M	0.642	0.403	0.617	0.4	0.335	0.759	0.852	0.688	0.31	0.218	0.822	0.932	0.845	1.01	0.96	0.755	0.704	0.825	0.586	0.452
